Patent US20260034063A1 (Opella Healthcare Group SAS, priority 2023, published 2026)

What was measured:
[1] = Fraction of fexofenadine in zwitterion form at suspension pH; type: physicochemical; conditions: pH between 5.8 and 7.0
Excerpt: The conversion of anhydrous form to the zwitterion shape is controlled by the pH of the suspension, which is monitored throughout the manufacture of the product, and controlled by the addition of monobasic sodium phosphate buffers and dibasic sodium phosphate.

[2] = tested on: Bacteria; Fungus and yeast; test: Preservative system efficacy test (PET), summary statements; type: cell-based; conditions: for preservative system efficacy test (PET) results: in fexofenadine suspension with EDTA, Ph. Eur and USP criteria
Protocol: (§1) To generate the formulations, the parabens of the existing formulations were replaced with the tested putative paraben replacement. The formulation stayed otherwise the same. As such, all of the preservatives were tested in combination with EDTA.
(§2) Further studies to test use of potassium sorbate for efficacy as an antimicrobial preservative were carried out in the formula with potassium sorbate in order to confirm the minimum concentration of use and definition of the specification, furthering the American and European monographs, in order to meet the different regulatory requirements of the countries in which this new formula will be submitted. The stability studies were conducted for a period of 36 months.

[3] = tested on: Bacteria; Fungus and yeast; test: Preservative efficacy test, criteria of the European pharmacopoeia (Ph. Eur 5.1.3); type: cell-based
Protocol: as §1, §2

[4] = tested on: Bacteria; Fungus and yeast; test: Preservative efficacy test, criteria of the US Pharmacopoeia (USP <51>); type: cell-based; conditions: American pharmacopoeia criteria
Protocol: as §1, §2

[5] = stability studies conducted for 36 months
Protocol: as §2

SMILES: CC(C)(C(=O)O)c1ccc(C(O)CCCN2CCC(C(O)(c3ccccc3)c3ccccc3)CC2)cc1.Cl (stereo not drawn) [Fexofenadine, 4-[1-hydroxy-4-[4-(hydroxydiphenylmethyl)-1-piperidinyl]-butyl]-α,α-dimethyl benzeneacetic acid hydrochloride]
- fexofenadine in the form of zwitterion [1]: 97%

SMILES: O=C([O-])c1ccccc1.[Na+] [Sodium Benzoate, Sodium benzoate]
- preservative system efficacy test (PET) results [2]: satisfactory

SMILES: C/C=C/C=C/C(=O)[O-].[K+] [Potassium sorbate]
- point of failure (concentration) [3]: 0.3%
- point of failure (concentration) [4]: 0.10
- concentration considered effective as a preservative ([2]; criteria of both pharmacopoeias, fexofenadine suspension with EDTA): 0.4%
- effective as preservative until (stability time) [5]: 36 months

SMILES: CCCCCCCCCCCC[N+](C)(C)CCOc1ccccc1 [Domiphen bromide]
- preservative system efficacy test (PET) results [2]: good
